This is an account of results in patent US9487462B2, “Inhibitors of matrix metalloproteinases” (PharmaHungary 2000 Kft., priority 2010, dated 2016).

In test [1] the target is T1, MMP1 (Homo sapiens (Human), UniProt P03956). The test is described as follows: In vitro zymography assay (casein), MMP-1. Conditions: % ± SD. Format: biochemical. Here is the method: (§1) MMP-2 and MMP-9 enzymes were isolated from rat hearts and from rat spleen while human, recombinant MMP-1 and MMP-13 enzymes used were commercial. MMP-2, -9, -13 enzymes were separated by electrophoresis during non-reducing conditions on 8% SDS-polyacrylamide gels copolymerized with 2 mg/ml gelatin from porcine skin (Sigma Aldrich) while MMP-1 was separated under the same conditions on 8% SDS-polyacrylamide gels copolymerized with 2 mg/ml casein (Sigma Aldrich). […] In case of MMP-13 p-aminophenylmercuric acetate (APMA) was used for enzyme activation at 37° C. for 30 min. After electrophoresis, gels were washed in 2.5% Triton-X 100 with agitation and then incubated for 20 hrs at 37° C. in enzyme incubation buffer (50 mM Tris-HCl, pH 7.5, containing 5 mM CaCl2, 200 mM NaCl) with or without MMP inhibitor. Zymographic gels were stained in Coomassie Brilliant Blue R-250 and de-stained. Gelatin and casein zymograms were scanned. MMP activity is detected as a white zone on a blue background and the clear bands in the gel can be quantified by densitometry. The obtained density values were measured and % inhibition values calculated (Kupai et al., 2010). The table below summarizes the prescreen inhibition values determined for different MMP inhibitors on MMP1, -2, -9, -13.
Target sequence in this assay (P03956 100-469): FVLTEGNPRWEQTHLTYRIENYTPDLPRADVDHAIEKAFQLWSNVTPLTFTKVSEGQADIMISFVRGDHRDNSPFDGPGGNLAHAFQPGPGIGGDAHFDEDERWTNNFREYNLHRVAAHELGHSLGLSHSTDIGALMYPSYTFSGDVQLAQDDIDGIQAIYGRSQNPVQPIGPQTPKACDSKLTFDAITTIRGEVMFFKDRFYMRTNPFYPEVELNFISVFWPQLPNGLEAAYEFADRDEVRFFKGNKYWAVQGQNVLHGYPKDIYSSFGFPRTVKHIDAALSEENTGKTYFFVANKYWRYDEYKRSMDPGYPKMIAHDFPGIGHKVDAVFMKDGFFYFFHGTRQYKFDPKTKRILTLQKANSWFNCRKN

In test [2] the test system is neonatal rat cardiac myocytes. The test is described as follows: Cytoprotective effect in cardiac myocytes subjected to hypoxia and reoxygenation. Format: cell-based. The gist of the method: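 Day-3 neonatal rat cardiomyocytes subjected to 4 h simulated ischemia (95% N2/5% CO2, hypoxic solution, 37 °C) or normoxia, then reoxygenation. MMP inhibitors at EC5, EC10, EC20 and EC50 (DMSO vehicle; ilomastat 0.5 µM control) present throughout; viability by calcein-AM relative to digitonin/propidium iodide total cell count.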

For test [3], the target named is T2, MMP13 (Homo sapiens (Human), UniProt P45452). Put plainly: In vitro zymography assay (gelatin), MMP-13. The class given is biochemical. Conditions: % ± SD. Here is the method:
as §1

In test [4] the target is T2, MMP13. Put plainly: MMP activity assay (fluorogenic substrate), MMP13 catalytic domain. The class given is biochemical. Conditions: Table 2; read-out: MMP13 IC50.
For test [5], the target named is T1, MMP1. Put plainly: MMP activity assay (fluorogenic substrate), MMP1. The class given is biochemical.
Target sequence in this assay (P03956 100-469, species assumed): as the sequence (P03956 100-469) above
For another test, the system named is isolated rat hearts. The test is described as follows: Myocardial ischemia/reperfusion injury in isolated rat hearts (Langendorff), infarct size. The class given is ex vivo. Here is the method: Male Wistar rats were anesthetized with diethyl ether, heparin (500 U/kg i.v.) was administered and hearts were isolated. The hearts were assigned to three groups: (i) DMSO control and (ii) Compound 1 (1 μM) and (iii) Compound 1 (10 μM) treated. Stock solution of inhibitors was prepared in DMSO. The final DMSO concentration in all assays was 0.1%. Hearts were perfused in Langendorff mode with constant pressure (100 H2O cm) for 20 min at 37° C. then exposed to global ischemia for 30 min followed by 120 min of reperfusion. The DMSO and inhibitors were dissolved in Krebs-Henseleit buffer and administered only before onset of ischemia for 20 min (pretreatment) and during the first 30 min of reperfusion (FIG. 6). At the end of reperfusion, infarct size (IS) was defined by triphenyltetrazolium chloride staining (Csonka et al., 2010).
In separate experiments hearts were perfused to test cardioprotective effect of ALBH-know compound at 5 μM final concentration. The same protocol was used as mentioned above.

[6] abbreviates: read-out: % inhibition MMP-1 (52 kDa).
Where [7] appears, read: read-out: % inhibition MMP-1 (55 kDa).

Each structure is given as a SMILES string. “Also recorded” adds a separate entry of the source. Like-named read-outs stand apart in the source and are kept apart here.

Consider `O=C(O)c1csc(CN(Cc2ccc(F)cc2)Cc2ccc(OCc3cccnc3)cc2)n1` [Compound 1, 2-({[(4-Fluorophenyl)methyl]({[4-(pyridin-3-ylmethoxy)phenyl]methyl})amino}methyl)-1,3-thiazole-4-carboxylic acid], for which the inhibition at 1 µM at MMP1 [1] (setting [6]) was determined as 25.9 ± 9.51%; at MMP1 [1] (setting [7]) it was 29.2 ± 38.7%; at MMP13 [3] (1 μM, read-out: % inhibition MMP-13 (50 kDa)), 54.4 ± 2.33%. The inhibition at 100 µM is 58 ± 12.6% at MMP1 [1] (setting [6]) and 95.3 ± 8.17% on MMP1 [1] (setting [7]). Also, the “Cytoprotective effect, % cell survival as compared to vehicle DMSO” value in test [2] (normoxia, EC5 concentration 2.6 microM) is on record as 120 ± 2 %; in test [2] (normoxia, EC10 concentration 6.3 microM), 99 ± 2%; in test [2] (normoxia, EC20 concentration 10.4 microM), 94 ± 2%; in test [2] (normoxia, EC50 concentration 17.7 microM), 86 ± 2 %; in test [2] (simulated ischemia, EC5 concentration 2.6 microM), 125 ± 6 %; in test [2] (simulated ischemia, EC10 concentration 6.3 microM) it was 109 ± 2%. Moreover, the “Cytoprotective effect, % cell survival as compared to vehicle DMSO” value is reported as 106 ± 2% in test [2] (simulated ischemia, EC20 concentration 10.4 microM) and 97 ± 2% in test [2] (simulated ischemia, EC50 concentration 17.7 microM). At MMP13 [3] (100 μM), the “% inhibition MMP-13 (50 kDa)” value is “No inhibition”. For the same molecule, the concentration for half-maximal inhibition (IC50) on MMP13 [4] stood at 2.5 µM; at MMP1 [5] (Table 2, read-out: MM1 IC50), 51 µM; on MMP1 [5] (read-out: IC50 on MMP1), 46 µM. Also, in the test on isolated rat hearts (1 μM and 10 μM, administered before ischemia and during reperfusion, result in words), the “myocardial IS (infarct size)” value is listed as “reduced myocardial IS; also recorded: decreased infarct size significantly”. Further, the “Infarct size as compared with DMSO control” value in the test with isolated rat hearts (10 μM, isolated rat hearts, 30 min global ischemia, 120 min reperfusion, p<0.05) is listed as “significantly decreased infarct size”.
